From article PMC5908784, “Extracellular loops 2 and 3 of the calcitonin receptor selectively modify agonist binding and efficacy” (Biochemical Pharmacology, 2018)
Numbering of substitutions follows the chain as printed. pKi: −log10 of the molar value. Where no end group is shown, it is not given here.

Legend:
Assay in all cases: Homologous whole cell competition binding
Settings in all cases: homologous competition of 125I-sCT(8-32), whole cells, mean ± S.E.M., SEM
hCTR S364A = target: T1, hCTR S364A (Homo sapiens, UniProt P30988, S364A)
T1 construct: c-Myc (N); expressed in transfected cells
T1 sequence (P30988 25-474 S364A): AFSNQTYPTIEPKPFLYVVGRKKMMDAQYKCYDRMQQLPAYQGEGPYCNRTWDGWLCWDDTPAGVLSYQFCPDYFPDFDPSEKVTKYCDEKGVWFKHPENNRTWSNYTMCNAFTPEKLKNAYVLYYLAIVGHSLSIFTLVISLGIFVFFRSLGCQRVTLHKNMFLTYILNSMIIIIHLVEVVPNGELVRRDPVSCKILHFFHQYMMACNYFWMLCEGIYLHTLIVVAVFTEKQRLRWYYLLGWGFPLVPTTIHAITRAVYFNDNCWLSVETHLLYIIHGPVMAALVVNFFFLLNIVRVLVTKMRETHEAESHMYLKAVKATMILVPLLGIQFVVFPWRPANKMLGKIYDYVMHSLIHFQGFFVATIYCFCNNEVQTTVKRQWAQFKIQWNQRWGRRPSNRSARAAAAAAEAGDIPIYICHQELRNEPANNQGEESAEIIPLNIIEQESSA
Outline: (§1)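 Affinity comes from self-competition of sCT(8-32) against its iodinated form on intact cells, held at 4 °C overnight. Bound counts were read on a gamma counter, fitted to a 3-parameter logistic curve and converted with Cheng-Prusoff.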

hCTR V293A = target: T2, hCTR V293A (Homo sapiens, UniProt P30988, V293A)
T2 construct: c-Myc (N); expressed in transfected cells
T2 sequence (P30988 25-474 V293A): T1 sequence (P30988 25-474 S364A) with V269A, A340S
Outline: as §1

hCTR F285A = target: T3, hCTR F285A (Homo sapiens, UniProt P30988, F285A)
T3 construct: expressed in transfected cells
T3 sequence (P30988 25-474 F285A): T1 sequence (P30988 25-474 S364A) with F261A, A340S
Outline: as §1

hCTR V357A = target: T4, hCTR V357A (Homo sapiens, UniProt P30988, V357A)
T4 construct: c-Myc (N); expressed in transfected cells
T4 sequence (P30988 25-474 V357A): T1 sequence (P30988 25-474 S364A) with V333A, A340S
Outline: as §1

pKi (hCTR S364A): 9.72
pKi (hCTR V293A): 9.75
pKi (hCTR F285A): 9.99
pKi (hCTR V357A): 9.68
Substance: VLGKLSQELHKLQTYPRTNTGSGTP-NH2 [sCT(8-32)]
